Assay results published in patent US7144902B1, “Prodrugs of thrombin inhibitors” (Abbott GmbH & Co. KG, priority 1999, dated 2006).

System: not listed separately
Experiment: Stability of aqueous solutions of the product
Format: physicochemical
Details: neutral versus acidic aqueous solutions; acylated amidine function is hydrolyzed in acid
Procedure: • The crude product obtained in g), t-BuO2C—CH2-(Boc)-(D)-Chg-Pyr-NH—CH -5-(2=NH(NH—COOCH3))-thioph (1.7 g, max. 2.3 mmol), was dissolved in a mixture of 45 ml of methylene chloride, 20 ml of dioxane and 45 ml of 4N hydrochloric acid in dioxane and stirred overnight with exclusion of moisture. The reaction solution was concentrated in vacuo, and the residue was codistilled with ether several times and subsequently extracted by stirring with ether. After drying in vacuo, 1.3 g of the title compound were obtained as a white solid product. […] FAB-MS (M+H^+): 506

SMILES	stability of aqueous solutions
COC(=O)NC(=N)c1ccc(CNC(=O)C2C=CCN2C(=O)C(NCC(=O)O)C2CCCCC2)s1.Cl (centres unmarked) [Example 1, N-(Hydroxycarbonylmethyl)-(D)-cyclohexylglycyl-3,4-dehydroproline 2-(N-methoxycarbonyl)amidino-5-thienylmethylamide hydrochloride]	distinctly more stable than acidic solutions

System: human colon adenocarcinoma cell lines HT-29, Caco-2 and T84; IEC-18 cell line
Experiment: Transport experiments through intestinal cell layers on Transwell polycarbonate membranes (apical to basolateral)
Format: in vitro ADME
Parameters: key: +++: very good transport; ++: good transport; +: moderate transport
Details: transport rate from apical side through the cell layer to basolateral side, e.g. apical (pH 6.0) to basolateral (pH 8.0), e.g. 24 h; HPLC; divided into categories
From the text: Several in vitro models are available for studying intestinal absorption. Thus, the human colon adenocarcinoma cell lines HT-29, Caco-2 and T84 are routinely employed to investigate various intestinal transport processes (Madara et al., Am. J. Physiol. 1988, 254: G416–G423; K. L. Audus et al., Pharm. Res. 1990, 7, 435–451). The IEC-18 cell line has also shown itself to be a suitable model for investigating the permeability of hydrophilic substances through the intestinal membrane (Ma et al., J. Lab. Clin. Med. 1992 120, 329–41; Duizer et al., J. Contr. Rel. 1997 49, 39–49).
For the transport experiments (for materials and methods, see R. T. Borchardt, P. L. Smith, G. Wilson, Models for Assessing Drug Absorption and Metabolism, 1st edition, Plenum Press New York and London, 1996, chapter 2), the cells are cultivated on Transwell polycarbonate membranes for 17–24 days. The test chamber is arranged so that the membrane divides the apical from the basolateral compartment. Transport of the test substances from the apical side through the cell layer onto the basolateral side can be measured as a function of the pH gradient, for example apical (pH 6.0)→basolateral (pH 8.0).
After incubation of the cells with the test substance, samples are taken from the apical and basolateral sides after a defined time interval (e.g. 24 h). The content of test substance employed and any metabolites in each of the two compartments is determined by HPLC (comparison of retention times) and HPLC-MS (elucidation of metabolites) analyses. The transport rate is calculated.
It is possible on the basis of the results of these tests to divide test substances into the following categories: […]

SMILES	Transport
CCOC(=O)CN[C@@H](C(=O)N1CC=CC1C(=O)NCc1ccc(C(N)=NOCc2ccc(C)cc2)s1)C1CCCCC1.Cl (some centres unmarked) [Example 11, N-(Ethoxycarbonylmethyl)-(D)-cyclohexylglycyl-3.4-dehydroproline 2-(N-(p-methylbenzyloxy)amidino)-5-thienylmethylamide hydrochloride]	+++
CC(C)CCOC(=O)CN[C@H](CC1CCCCC1)C(=O)N1CC=CC1C(=O)NCc1nc(C(N)=NO)cs1.Cl (some centres unmarked) [Example 33, N-(3,3-Dimethylpropyloxycarbonylmethyl)-(D)-cyclohexylalanyl-3,4-dehydroproline 4-hydroxyamidino-2-thiazolylmethylamide hydrochloride]	+++
CCCCCCOC(=O)CN[C@H](CC1CCCCC1)C(=O)N1CC=CC1C(=O)NCc1nc(C(N)=NO)cs1.Cl (some centres unmarked) [Example 29, N-(Hexyloxycarbonylmethyl)-(D)-cyclohexylalanyl-3,4-dehydroproline 4-hydroxyamidino-2-thiazolylmethylamide hydrochloride]	++
CCCCCCCCCCCCCCCCOC(=O)CN[C@H](CC1CCCCC1)C(=O)N1CC=CC1C(=O)NCc1nc(C(=N)N)cs1.Cl.Cl (some centres unmarked) [Example 21, N-(Hexadecyloxycarbonylmethyl)-(D)-cyclohexylalanyl-3,4-dehydroproline 4-amidino-2-thiazolylmethylamide dihydrochloride]	++
CC(C)COC(=O)NC(=N)c1ccc(CNC(=O)C2C=CCN2C(=O)[C@H](NCC(=O)O)C2CCCCC2)s1.Cl (some centres unmarked) [Example 2, N-(Hydroxycarbonylmethyl)-(D)-cyclohexylglycyl-3,4-dehydroproline 2-(N-isobutyloxycarbonyl)amidino-5-thienylmethylamide hydrochloride]	+
CCCCCCCCCCCCCCCCOC(=O)CN[C@H](CC1CCCCC1)C(=O)N1CC=CC1C(=O)NCc1nc(C(N)=NO)cs1.Cl (some centres unmarked) [Example 25, N-(Hexadecyloxycarbonylmethyl)-(D)-cyclohexylalanyl-3,4-dehydroproline 4-hydroxyamidino-2-thiazolylmethylamide hydrochloride]	++
Cc1ccc(CON=C(N)c2ccc(CNC(=O)C3C=CCN3C(=O)[C@H](NCC(=O)O)C3CCCCC3)s2)cc1.Cl (some centres unmarked) [Example 10, N-(Hydroxycarbonylmethyl)-(D)-cyclohexylglycyl-3.4-dehydroproline 2-(N-(p-methylbenzyloxy)amidino)-5-thienylmethylamide hydrochloride]	+
